Reference: US9877937B2, “Compounds and methods for treating aberrant adrenocortical cell disorders” (Millendo Therapeutics, Inc., priority 2012, dated 2018)
pEC50: −log10 of the molar value. “Also recorded” adds a separate entry of the source. Counter-ions that a name gives are not always drawn. Like-named read-outs stand apart in the source and are kept apart here.

Tests used:
[1] = system: xenografts of the human ACC-derived cell line H295R; assay: H295R xenografts in SCID mice, treatment of established tumors (Examples 1 and 2); assay type: in vivo
Method: To investigate the potential therapeutic effect of ATR-101 in a mouse model of adrenocortical carcinoma (ACC), xenografts of the human ACC-derived cell line H295R in SCID mice (6-7 week males) were established. After the xenografts had grown to measurable size, the mice were randomized in two groups. The treatment group was administered 300 mg/kg/day ATR-101 by oral gavage. The control group was administered the vehicle without ATR-101. The tumor size was measured using calipers before and on the indicated days after starting administration of ATR-101.
To determine if the effects of ATR-101 on ACC-derived cell line xenotransplants were reproducible, the experiment using xenotransplants of the same H295R cell line in SCID mice (10-11 week males) were repeated.

[2] = system: ACC-derived cell line H295R xenografts; assay: ACC xenograft establishment in SCID mice injected with H295R cells (Example 6); assay type: in vivo
Method: FIG. 7 depicts the effects of ATR-101 administration on ACC xenograft establishment. Randomized cohorts of 10 mice injected with H295R cells were administered 700 mg/kg/day ATR-101 for 4 days followed by 300 mg/kg/day ATR-101 or vehicle by gavage beginning 14 days after cell injection. The sizes of the xenografts were measured three times each week.
(§1) To investigate the potential therapeutic benefit of ATR-101 in the establishment of ACC xenografts in a mouse model of ACC, ACC-derived cell line H295R was injected in SCID mice (6-7 week males). 1×10^8 cells in 0.2 ml DMEM were injected under the skin in the right dorsal flank regions of SCID mice. Two weeks after injection, the mice were randomized in groups of 10. ATR-101 was administered at 700 mg/kg/day for 4 days, followed by 300 mg/kg/day by oral gavage in 10% DMSO, 0.5% CMC, 0.9% NaCl, 0.2% Tween, pH 3. Control mice were administered vehicle. The tumor size was measured using calipers three times a week. Urinary cortisol was measured at various time points after start of ATR-101 or vehicle administration.

[3] = system: cortisol produced by H295R cells xenografted into SCID mice; assay: Urinary cortisol levels in mice with H295R xenotransplants (DetectX cortisol assay kit); assay type: in vivo; details: 700 then 300 mg/kg/day; from 22 days after cell injection
Method: FIG. 8 depicts the urinary cortisol levels in mice with H295R xenotransplants treated with vehicle or ATR-101. Randomized cohorts of 10 mice injected with H295R cells were administered 700 mg/kg/day ATR-101 for 4 days followed by 300 mg/kg/day ATR-101 or vehicle by gavage beginning 14 days after cell injection. Urine was collected on the days indicated beginning at 22 days after cell injection (8 days after the start of ATR-101 or vehicle administration), and the cortisol levels were determined using a DetectX® cortisol assay kit (Arbor Assays).
as §1

[4] = system: ACC-derived xenotransplants (H295R); assay: High dose ATR-101 on H295R xenotransplants in SCID mice (Example 7); assay type: in vivo; details: 1,000 mg/kg/day oral; 3 mice per group
Excerpt: The effects of a high dose of ATR-101 on ACC-derived xenotransplants in SCID mice were also studied. Xenografts were produced as previously described with 3 mice in the ATR-101 treated group and 3 mice in the control group.

H295R cells [5] = assay: ATP levels of H295R cells (CellTiter-Glo luminescence); assay type: cell-based, human
Method: (§2) To measure ATP levels and reducing potentials of H295R cells, these cells were cultured in 96-well flat bottom cell culture plates (BD Biosciences) plated at 50,000 cells in 100 μl. The cells were plated in DMEM media without glucose (GIBCO 11966)+10 mM galactose+5 mM sodium-HEPES+2 mM glutamine (addition)+1 mM sodium pyruvate+100 U/ml penicillin/streptomycin+either 0% or 5% fetal calf serum. After overnight (16-20 h) incubation, 20 μl of medium containing 5% fetal calf serum as well as the aliquots of ATR-101 required to produce the final concentrations were added to the cells. To measure ATP levels, 100 μl of the CellTiter-Glo® (Promega Corp., Madison, Wis.) reagent was added to lyse the cells at the indicated times, and luciferin luminescence was measured to determine the amount of ATP in the lysate. To measure reducing activity, PrestoBlue® Cell Viability reagent (Life Technologies Corp.) was added to the cells immediately after ATR-101. The cells were incubated at 37° C. with CO2, and resorufin fluorescence was measured at the times indicated.
To investigate the mechanism whereby ATR-101 kills cells in culture, the effects of cholesterol depletion on the ATP levels of H295R cells cultured in the presence of ATR-101 was investigated. The cells were cultured in the presence of methyl-β-cyclodextrin (MβCD), which can sequester cholesterol and thereby deplete free cholesterol in the cells. […] MβCD increased the concentration of ATR-101 required for half-maximal depletion of ATP levels more than 4-fold.
To determine if the effect of MβCD on ATR-101 cytotoxicity was due to cholesterol depletion, H295R cells were cultured in the presence of the equivalent amount of MβCD complexed with cholesterol (FIG. 12C). […] The protection of H295R cells from the cytotoxicity of ATR-101 by culture in the presence of MβCD was therefore due to cholesterol depletion in these cells.

H295R cells [6] = assay: Reducing activity of H295R cells (resazurin reduction, PrestoBlue); assay type: cell-based, human
Method: as §2
Cellular reducing activity was determined by measuring resazurin reduction using the PrestoBlue® Cell Viability Reagent (Invitrogen). […] Low to moderate concentrations of ATR-101 increased reducing activity, but had little effect on ATP levels. High concentrations of ATR-101 reduced both reducing activity and ATP levels, presumably because of a decrease in cell viability.
To determine if the culture of H295R cells in the presence of MβCD altered ATR-101 entry into cells, the effects of MβCD on ATR-101 induced changes in reducing activity were examined (FIG. 12D-F). Culture in the presence of MβCD alone had little effect on the reducing activity of the cells (FIG. 12E). […] The reduction in reducing activity was likely related to the reduction in ATP levels caused by MβCD complexed with cholesterol.

ACTH-stimulated cortisol = assay: Basal and ACTH-stimulated plasma cortisol levels in dogs; assay type: in vivo
Method: […] 6 dogs/sex/dosage group were studied. […] Plasma cortisol concentrations (ng/ml) in male and female dogs were determined prior to ACTH stimulation and 0.5 and 1 hour after ACTH stimulation.

adrenal gland [7] = assay: Adrenal gland histopathology in dogs; assay type: in vivo; details: 300 mg/kg/day for 28 days; day 28; hydrochloride
Method: Left and right adrenal glands from dogs treated with a high dose 300 mg/kg/day of ATR-101 for 28 days and control animals were collected at necropsy and fixed in 10% neutral buffered formalin, processed by routine paraffin technique, sectioned longitudinally, and stained with hematoxylin and eosin for routine light microscopy (FIGS. 15A-E).

adrenal gland [8] = assay: Adrenal gland weights in dogs after 28 days; assay type: in vivo
Method: Left and right adrenal glands from male and female dogs treated with various doses of ATR-101 (0 mg/kg/day, 0.3 mg/kg/day, 3 mg/kg/day, or 30 mg/kg/day) for 28 days were collected at necropsy and weighed. Dose-related changes in adrenal gland weights occurred in both sexes (FIGS. 16A and 17A). Absolute and relative (adrenal-to-body (Adrenal:BW (%)) and adrenal-to-brain (Adrenal:BrW) weight ratios) adrenal weights were decreased 14% to 55% in both sexes at ≧3 mg/kg/day (FIGS. 16A-C and 17A-C). After the 4 week recovery period, adrenal weights remained decreased 6% to 11% in males at 3 mg/kg/day and 10% to 32% in both sexes at 30 mg/kg/day. […] Histologic changes in the adrenal glands persisted after the recovery period.

[9] = Tissue distribution of ATR-101 in rats; assay type: in vivo; details: for Kp at 7 days: rat, female rats, 100 mg/kg/day for 7 days, N=3
Method: (§3) Tissue distribution of ATR-101 in 3 rats and 3 dogs was examined. ATR-101 concentrations were measured in plasma, red blood cells, adrenal gland, liver, kidney, skeletal muscle, ovary, subcutaneous fat, and cerebral spinal fluid. […] ATR-101 concentrations in rats were higher in adrenal gland (˜2×) and ovary (˜1.4×) than in plasma. […] ATR-101 concentrations in dogs were similar in adrenal gland and plasma.

[10] = Tissue distribution of ATR-101 in dogs; assay type: in vivo
Method: as §3

[11] = target: complex II of the electron transport chain (Homo sapiens, UniProt O14521+P21912+P31040+Q99643); details: isolated mitochondria; cited from earlier work
complex II of the electron transport chain, sequence (P31040 43-664): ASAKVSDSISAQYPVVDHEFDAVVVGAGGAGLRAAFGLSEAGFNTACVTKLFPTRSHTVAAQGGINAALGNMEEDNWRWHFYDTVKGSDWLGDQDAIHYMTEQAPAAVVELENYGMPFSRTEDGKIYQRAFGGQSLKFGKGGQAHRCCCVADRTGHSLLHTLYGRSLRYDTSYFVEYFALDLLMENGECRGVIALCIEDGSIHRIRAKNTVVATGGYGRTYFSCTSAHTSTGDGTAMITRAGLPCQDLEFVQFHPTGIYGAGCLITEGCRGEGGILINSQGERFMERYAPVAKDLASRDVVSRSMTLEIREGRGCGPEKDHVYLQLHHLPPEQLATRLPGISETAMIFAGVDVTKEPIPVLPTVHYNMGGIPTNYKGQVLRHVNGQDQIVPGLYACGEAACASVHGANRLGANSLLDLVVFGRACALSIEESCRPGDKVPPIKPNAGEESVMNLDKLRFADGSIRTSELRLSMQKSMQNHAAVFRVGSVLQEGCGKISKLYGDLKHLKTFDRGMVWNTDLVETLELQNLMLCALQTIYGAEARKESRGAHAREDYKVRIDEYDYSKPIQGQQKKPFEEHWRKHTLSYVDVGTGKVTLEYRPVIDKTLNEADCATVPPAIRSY
complex II of the electron transport chain, sequence (P21912 29-280): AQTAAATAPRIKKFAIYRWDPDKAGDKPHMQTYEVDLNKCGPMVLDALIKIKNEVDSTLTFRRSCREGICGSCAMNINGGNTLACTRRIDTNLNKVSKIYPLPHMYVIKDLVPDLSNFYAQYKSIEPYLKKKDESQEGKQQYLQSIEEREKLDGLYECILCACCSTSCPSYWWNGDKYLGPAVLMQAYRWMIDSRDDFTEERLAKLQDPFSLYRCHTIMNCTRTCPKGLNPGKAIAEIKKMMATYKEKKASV
complex II of the electron transport chain, sequence (Q99643 30-169): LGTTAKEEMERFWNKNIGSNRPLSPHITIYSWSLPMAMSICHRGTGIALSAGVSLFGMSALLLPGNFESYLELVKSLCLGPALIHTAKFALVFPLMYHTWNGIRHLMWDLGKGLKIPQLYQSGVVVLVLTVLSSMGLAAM
complex II of the electron transport chain, sequence (O14521 57-159): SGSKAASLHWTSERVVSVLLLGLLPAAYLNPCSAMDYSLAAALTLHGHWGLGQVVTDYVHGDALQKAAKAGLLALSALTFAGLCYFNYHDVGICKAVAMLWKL

[12] = system: adrenocortical carcinoma (ACC); details: cited from earlier work

CC(C)c1cccc(C(C)C)c1NC(=O)NCC1(c2ccc(N(C)C)cc2)CCCC1 [ATR-101, N-(2,6-bis(1-methylethyl)phenyl)-N′-((1-(4-(dimethylamino)phenyl)cyclopentyl)-methyl)urea hydrochloride]
decrease in tumor size ([1]; 300 mg/kg/day oral gavage, 8 days after start, n=3, relative standard deviation 32%, control increased 400%): 50% | time to resumption of tumor growth after change to Formulation II ([1]; 300 mg/kg/day, formulation changed after first week): within two days | body condition score (BCS) ([1]; 300 mg/kg/day, treatment group, control 2.0): 3.0 | tumor size versus control group ([1]; 15 days after beginning of administration, p<0.05): significantly smaller | time to resumption of tumor growth after start of administration ([1]; Example 2): within eight days | tumor size ([1]; Example 2, 300 mg/kg/day, six days after start, n=2): decreased to undetectable size | tumor size as fraction of size of tumors in control mice ([1]; Example 2, 13 days after start): one-eighth to one-third | regression of xenograft relative to size before administration ([1]; all mice with tumors smaller than 300 mm^3): less than half of its size | time at which tumors exceeded pre-treatment size ([1]; both experiments): 8 to 15 days | time at which tumors resumed growth after start of administration ([1]; both experiments): 7 to 9 days | time of maximal therapeutic effect after start of administration ([1]; both experiments): 6 to 8 days | post-mortem tumor weight (mean) ([1]; first experiment, surviving treated mice, SD of the mean 0.13 g, control 1.23 g, p<0.05): 0.71 g | total body weight (mean) ([1]; first experiment, treatment group, SD of the mean 1 g, control 19 g): 24 g | effect on tumor growth in mice with large tumors ([1]; two mice with tumors of 300 mm^3 and 900 mm^3): did not halt the tumor growth | body weight versus vehicle ([2]; 700 then 300 mg/kg/day): no significant difference | median time until xenograft formation versus vehicle-treated group ([2]; 700 then 300 mg/kg/day): more than twice as long | survival ([2]; 100 days after injection): All the mice were alive | mice that developed palpable xenografts ([2]; of 10 mice, 700 mg/kg/day 4 days then 300 mg/kg/day by gavage from 14 days after injection, vehicle 7 of 10): 2 | xenograft size ([2]; the 2 xenografts, 100 days after injection): < 500 mm^3 | average urinary cortisol levels versus vehicle [3]: lower | tumor growth versus vehicle treated controls [4]: significantly reduced tumor growth | reduction of ATP luminescence signal (H295R cells [5]; 64 μM, 4 hours): about 90% | increase by MβCD of ATR-101 concentration required for half-maximal depletion of ATP levels (H295R cells [5]; 2 mM MβCD): more than 4 fold | ATP levels of cells cultured in presence of MβCD (H295R cells [5]; 2 mM MβCD, up to 32 μM ATR-101): unaffected | pEC50 (H295R cells [5]; Homo sapiens, NCI-H295R, 4 hours, read-out: concentration with half-maximal effect on ATP luminescence signal): 4.80 | ATP level in cells cultured with MβCD complexed with cholesterol (H295R cells [5]; MβCD (2 mM) complexed with cholesterol): further reduction | reducing activity in cells cultured in presence of MβCD (H295R cells [6]; 2 mM MβCD): larger increase in reducing activity | resazurin fluorescence signal, higher concentrations (H295R cells [6]; ATR-101 concentrations higher than 8 μM): reduced the fluorescence | reducing activity in cells cultured with MβCD complexed with cholesterol (H295R cells [6]; MβCD complexed with cholesterol, in absence and presence of ATR-101): lower reducing activities | resazurin fluorescence signal, low concentrations (H295R cells [6]; up to 8 μM ATR-101): increased the fluorescence signal | cortisol during recovery period (ACTH-stimulated cortisol; days 42 and 56, drug-free recovery): reversal of the cortisol-suppressive effects | ACTH responses (plasma cortisol) (ACTH-stimulated cortisol; male and female dogs, 3 mg/kg/day and 30 mg/kg/day, from day 7 through day 14 and day 28): Marked drug-associated decreases | adrenal gland histopathology findings (adrenal gland [7]): fibrosis; also recorded: vacuolation; also recorded: cortical atrophy | histologic changes in adrenal glands after recovery period (adrenal gland [8]; after 4 week recovery): persisted | histologic changes associated with adrenal weight changes (adrenal gland [8]; both sexes, ≧3 mg/kg/day): adrenal cortical atrophy, fibrosis, and vacuolation | Kp at 7 days ([9]; adrenal gland (relative to plasma), read-out: adrenal gland concentration relative to plasma): ~2 | Kp at 7 days ([9]; ovary (relative to plasma), read-out: ovary concentration relative to plasma): ~1.4 | blood-brain barrier crossing ([9]; rats): does not appear to cross the blood-brain barrier | level in cerebral spinal fluid (CSF) ([9]; rats, likely contamination of CSF with blood): Low levels | blood-brain barrier crossing ([10]; dogs): does not appear to cross the blood-brain barrier | adrenal gland concentration compared with plasma ([10]; female dogs, 3 mg/kg/day for 7 days, N=3): similar | effect on complex II of the electron transport chain [11]: inhibit

Clc1ccc(C(c2ccccc2Cl)C(Cl)Cl)cc1 (centres unmarked) [mitotane]
proportion of patients with increased progression-free survival ([12]; ACC patients): one-quarter to one-third | elimination half-life ([12]; accumulates in fat tissue): months | average delay of disease progression ([12]; patients that derive a therapeutic benefit): five | blood level required for therapeutic benefit ([12]; patients): 14 mg/L | toxic blood level ([12]; patients): 20 mg/L
